Assay results: ChEMBL document CHEMBL5385848, “Discovery of novel hydroxyamidine based indoleamine 2,3-dioxygenase 1 (IDO1) and thioredoxin reductase 1 (TrxR1) dual inhibitors” (Eur J Med Chem, 2023)
pEC50, pIC50: −log10 of the molar value. Active and inactive are the calls of the source. The rule behind the calls is not given here.

Legend:
[1] = Toxicity in athymic BALB/c mouse xenografted with human HCT-116 cells assessed as change in heart morphology at 15 to 60 mg/kg, ig administered daily for 28 days and measured every 4 days; type: organism-based; conditions: in vivo, po, 672 h, dose 15-60 mg/kg, time 28 day
[2] = biological target: Indoleamine 2,3-dioxygenase 1 (Mus musculus) (UniProt P28776); test: In vivo inhibition of IDO1 in C57BL/6 mouse assessed as reduction in plasma Kyn/Trp ratio at 60 mg/kg, po administered once daily by LC-MS/MS analysis; type: functional, organism-based
Chain of Indoleamine 2,3-dioxygenase 1 (Mus musculus) (P28776 whole entry, looked up): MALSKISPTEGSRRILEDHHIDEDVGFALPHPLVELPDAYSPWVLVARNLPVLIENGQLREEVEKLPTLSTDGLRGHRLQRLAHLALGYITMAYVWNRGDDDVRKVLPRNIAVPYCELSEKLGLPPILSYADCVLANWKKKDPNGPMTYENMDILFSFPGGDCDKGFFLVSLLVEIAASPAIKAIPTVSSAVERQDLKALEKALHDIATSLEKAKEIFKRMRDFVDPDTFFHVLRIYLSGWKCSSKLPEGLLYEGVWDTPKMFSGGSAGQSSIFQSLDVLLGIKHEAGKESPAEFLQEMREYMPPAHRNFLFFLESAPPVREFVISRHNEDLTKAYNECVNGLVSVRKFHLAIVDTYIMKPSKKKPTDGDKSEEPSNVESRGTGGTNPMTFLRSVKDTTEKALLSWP

[3] = biological target: Indoleamine 2,3-dioxygenase 1 (Mus musculus) (UniProt P28776); test: In vivo inhibition of IDO1 in C57BL/6 mouse assessed as reduction in plasma Kyn level at 60 mg/kg, po administered once daily by LC-MS/MS analysis; type: functional, organism-based
[4] = biological target: T1, Indoleamine 2,3-dioxygenase 1 (Homo sapiens, UniProt P14902); test: Inhibition of recombinant human IDO1 using L-Trp as substrate incubated for 1 hr
T1 sequence (P14902 whole entry): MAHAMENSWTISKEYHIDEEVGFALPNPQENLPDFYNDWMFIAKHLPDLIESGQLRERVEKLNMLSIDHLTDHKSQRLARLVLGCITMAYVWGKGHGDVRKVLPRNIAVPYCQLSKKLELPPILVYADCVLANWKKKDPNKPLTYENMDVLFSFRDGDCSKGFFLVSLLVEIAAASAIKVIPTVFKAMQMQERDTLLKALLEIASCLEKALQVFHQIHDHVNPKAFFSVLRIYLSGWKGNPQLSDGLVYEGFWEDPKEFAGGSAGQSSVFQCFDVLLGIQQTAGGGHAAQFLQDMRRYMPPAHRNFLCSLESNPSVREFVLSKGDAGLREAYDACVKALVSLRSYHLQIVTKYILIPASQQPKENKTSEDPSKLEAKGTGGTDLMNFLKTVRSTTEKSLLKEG

[5] = tested on: HeLa; test: Cytotoxicity against human HeLa cells incubated for 24 hrs CCK-8 assay; type: functional, cell-based
[6] = tested on: HCT-116; test: Induction of apoptosis in human HCT-116 cells assessed as apoptotic rate at 5 uM incubated for 24 hrs by Annexin-V/PI staining based flow cytometry analysis; type: functional
[7] = biological target: Thioredoxin reductase 2, mitochondrial (Homo sapiens, UniProt Q9NNW7); test: Inhibition of TrxR2 (unknown origin) incubated for 1 hr in presence of NADPH by microplate reader analysis
Chain of Thioredoxin reductase 2, mitochondrial (Q9NNW7 whole entry): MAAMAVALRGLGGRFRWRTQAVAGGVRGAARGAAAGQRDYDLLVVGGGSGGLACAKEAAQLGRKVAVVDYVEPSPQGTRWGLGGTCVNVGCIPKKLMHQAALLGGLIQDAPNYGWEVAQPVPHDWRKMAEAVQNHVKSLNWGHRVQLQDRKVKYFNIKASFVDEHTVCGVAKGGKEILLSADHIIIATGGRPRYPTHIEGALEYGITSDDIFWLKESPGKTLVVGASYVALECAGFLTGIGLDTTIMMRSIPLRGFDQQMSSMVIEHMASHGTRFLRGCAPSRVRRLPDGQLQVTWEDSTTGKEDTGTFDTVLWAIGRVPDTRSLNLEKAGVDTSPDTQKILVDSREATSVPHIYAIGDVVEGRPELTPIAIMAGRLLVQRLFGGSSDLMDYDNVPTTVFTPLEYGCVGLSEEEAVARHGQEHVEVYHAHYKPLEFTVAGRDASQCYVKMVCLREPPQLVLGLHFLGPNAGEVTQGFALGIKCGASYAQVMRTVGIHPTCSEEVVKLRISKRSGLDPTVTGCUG

[8] = tested on: HCT-116; test: Induction of apoptosis in human HCT-116 cells assessed as apoptotic rate at 10 uM pretreated with NAC incubated for 24 hrs by Annexin-V/PI staining based flow cytometry analysis (reference value: 9.8 +/- 1.59%); type: functional
[9] = tested on: HCT-116; test: Cytotoxicity against human HCT-116 cells transfected with IDO1 siRNA incubated for 24 hrs by CCK-8 assay (reference value: 3.49 +/- 0.28 uM); type: functional, cell-based; conditions: HCT-116, 24 h
[10] = Toxicity in athymic BALB/c mouse xenografted with human HCT-116 cells assessed as change in spleen morphology at 15 to 60 mg/kg, ig administered daily for 28 days and measured every 4 days; type: organism-based; conditions: in vivo, po, 672 h, dose 15-60 mg/kg, time 28 day
[11] = Toxicity in athymic BALB/c mouse xenografted with human HCT-116 cells assessed as change in liver morphology at 15 to 60 mg/kg, ig administered daily for 28 days and measured every 4 days; type: organism-based; conditions: in vivo, po, 672 h, dose 15-60 mg/kg, time 28 day
[12] = tested on: HeLa; test: Cytotoxicity against TrxR1 knockdown human HeLa cells incubated for 24 hrs by CCK-8 assay (reference value: 13.79 +/- 2 uM); type: functional, cell-based
[13] = biological target: T1, Indoleamine 2,3-dioxygenase 1; test: Inhibition of IDO1 in human HeLa cells using L-Tryptophan as substrate incubated for 24 hrs by microplate reader analysis; type: cell-based
[14] = tested on: HCT-116; test: Induction of apoptosis in human HCT-116 cells assessed as apoptotic rate at 10 uM incubated for 24 hrs by Annexin-V/PI staining based flow cytometry analysis; type: functional
[15] = biological target: Indoleamine 2,3-dioxygenase 1 (Mus musculus) (UniProt P28776); test: In vivo inhibition of IDO1 in BALB/c mouse implanted with mouse CT-26 cells assessed as increase in tumor Trp level at 60 mg/kg, po administered once daily by LC-MS/MS analysis; type: functional, organism-based
[16] = tested on: HCT-116; test: Antitumor activity against human HCT-116 cells xenografted in ig dosed athymic nude BALB/c mouse assessed as tumor growth inhibition administered daily for 28 days and measured every 4 days; type: functional, organism-based; conditions: dose 15-60 mg/kg, time 28.0 day
[17] = biological target: Indoleamine 2,3-dioxygenase 1 (Mus musculus) (UniProt P28776); test: In vivo inhibition of IDO1 in BALB/c mouse implanted with mouse CT-26 cells assessed as reduction in tumor Kyn level at 60 mg/kg, po administered once daily by LC-MS/MS analysis; type: functional, organism-based
[18] = tested on: IDO1; test: Selectivity ratio of IC50 for cytotoxicity against mouse CT26 cells to EC50 for inhibition of IDO1 in mouse CT26 cells; type: cell-based; conditions: read-out: Ratio IC50/EC50
[19] = Toxicity in athymic nude BALB/c mouse assessed as weight gain at 15 to 60 mg/kg, ig administered daily for 28 days and measured every 4 days; type: organism-based; conditions: in vivo, po, 672 h, dose 15-60 mg/kg, time 28 day
[20] = tested on: HCT-116; test: Induction of cell cycle arrest in human HCT-116 cells assessed as G1/S phase arrest at 2.5 to 10 uM pretreated with NAC for 2 hrs followed by compound addition and measured after 12 hrs by PI staining based flow cytometry analysis; type: functional; conditions: dose 2.5-10 µM
[21] = tested on: CT26; test: Antitumor activity against mouse CT26 cells implanted in […] BALB/c mouse assessed as increase in CD4 Th lymphocytes at 15 to 60 mg/kg, ig administered daily for 28 days and measured every 4 days; type: functional, organism-based; conditions: dose 15-60 mg/kg, time 28.0 day
[22] = tested on: HeLa; test: Induction of cell cycle arrest in human HeLa cells assessed as G1/S phase arrest at 2.5 to 10 uM pretreated with NAC for 2 hrs followed by compound addition and measured after 12 hrs by PI staining based flow cytometry analysis; type: functional; conditions: dose 2.5-10 µM
[23] = biological target: Indoleamine 2,3-dioxygenase 1 (Mus musculus) (UniProt P28776); test: In vivo inhibition of IDO1 in BALB/c mouse implanted with mouse CT-26 cells assessed as reduction in plasma Kyn/Trp ratio at 60 mg/kg, po administered once daily by LC-MS/MS analysis; type: functional, organism-based
[24] = tested on: HeLa; test: Induction of ROS generation in human HeLa cells at 10 uM incubated for 4 hrs by DCFH-DA staining based flow cytometry analysis; type: functional, cell-based
[25] = tested on: CT26; test: Antitumor activity against mouse CT26 cells implanted in athymic nude BALB/c mouse assessed as increase in CTL proliferation by measuring Ki67 expression at 60 mg/kg, ig administered daily for 28 days and measured every 4 days by immunofluorescence analysis; type: functional, organism-based; conditions: time 28.0 day
[26] = tested on: HCT-116; test: Cytotoxicity against human HCT-116 cells incubated for 24 hrs CCK-8 assay; type: functional, cell-based; conditions: HCT-116, 24 h
[27] = biological target: T1, Indoleamine 2,3-dioxygenase 1; test: Inhibition of IDO1 in human HCT-116 cells using L-Tryptophan as substrate incubated for 24 hrs by microplate reader analysis; type: cell-based
[28] = tested on: HCT-116; test: Induction of ROS generation in human HCT-116 cells incubated for 4 hrs by DCFH-DA staining based flow cytometry analysis; type: functional, cell-based; conditions: dose 2.5-10 µM
[29] = tested on: CT26; test: Antitumor activity against ig dosed mouse CT26 cells implanted in […] BALB/c mouse assessed as reduction in tumor volume administered daily for 28 days and measured every 4 days; type: functional, organism-based; conditions: dose 15-60 mg/kg, time 28.0 day
[30] = tested on: IDO1; test: Selectivity ratio of IC50 for cytotoxicity against human HCT-116 cells to EC50 for inhibition of IDO1 in human HCT-116 cells; type: cell-based; conditions: read-out: Ratio IC50/EC50
[31] = Cytotoxicity against mouse CT26 cells incubated for 48 hrs by CCK-8 assay; type: toxicity, cell-based
[32] = tested on: HCT-116; test: Induction of apoptosis in human HCT-116 cells assessed as apoptotic rate at 2.5 uM incubated for 24 hrs by Annexin-V/PI staining based flow cytometry analysis; type: functional
[33] = biological target: Indoleamine 2,3-dioxygenase 1 (Mus musculus) (UniProt P28776); test: In vivo inhibition of IDO1 in C57BL/6 mouse assessed as increase in plasma Trp level at 60 mg/kg, po administered once daily by LC-MS/MS analysis; type: functional, organism-based
[34] = tested on: HCT-116; test: Induction of ROS generation in human HCT-116 cells at 10 uM incubated for 4 hrs by DCFH-DA staining based flow cytometry analysis; type: functional, cell-based

Question: Which results are given for `O=C(Cc1ccc(O)cc1)Nc1nnc(CCCNc2nonc2/C(=N\O)Nc2ccc(F)c(Br)c2)s1`?
Answer: Activity [1]: Non-Toxic; Activity [2]: Active; Activity [3]: Active; pIC50 [4]: 7.30; pIC50 [5]: 4.79; Activity [6]: 30.64%; pIC50 [7]: < 3.30; Activity [8]: 15.21%; pIC50 [9]: 5.42; Activity [10]: Non-Toxic; Activity [11]: Non-Toxic; pIC50 [12]: 5.14; pEC50 [13]: 4.34; Activity [14]: 60.55%; Activity [15]: Active; Activity [16]: Active; Activity [17]: Active; selectivity ratio [18]: 5.35; Activity [19]: Toxic; Activity [20]: inactive; Activity [21]: Active; Activity [22]: Active; Activity [23]: Active; Activity [24]: Active; Activity [25]: Active; pIC50 [26]: 5.48; pEC50 [27]: 4.47; Activity [28]: Dose-Dependent Effect; Activity [29]: Dose-Dependent Effect; selectivity ratio [30]: 101; IC50 at 48 h [31]: 12.4 µM; Activity [32]: 22.57%; Activity [33]: Active; Activity [34]: Active
